Results as given in US20080292736A1, “Bioavailability enhancing activity of carum carvi extracts and fractions thereof” (COUNCIL OF SCIENTIFIC AND INDUSTRIAL RESEARCH, priority 2001, published 2008).
Like-named read-outs stand apart in the source and are kept apart here.

What was measured:
[1] = rat, in vivo
[2] = Enhancement of bioavailability of drugs given to rats with bioenhancers (plasma drug level by HPLC); details: for % Enhancement in bioavailability, BE from Zingiber officinale: drug with Zingiber officinale 50% alcoholic extract of fresh ginger 35 mg/kg; for % Enhancement in bioavailability, BE from Zingiber officinale / % Enhancement in bioavailability, Piperine as BE / % Enhancement in bioavailability, Carum carvi + Zingiber officinale / % Enhancement in bioavailability, Carum carvi + Piperine: drug dose as in row; for % Enhancement in bioavailability, Piperine as BE: drug with piperine 8 mg/kg; for % Enhancement in bioavailability, Carum carvi (Cc) Frac 1.: nutraceutical with Carum carvi Fraction No. 1 15 mg/kg; for % Enhancement in bioavailability, Carum carvi + Zingiber officinale, Frac 1. (Cc): nutraceutical with Carum carvi Fraction No. 1 and Zingiber officinale; for % Enhancement in bioavailability, Carum carvi + piperine, Frac 1. (Cc): nutraceutical with Carum carvi Fraction No. 1 and piperine; for % Enhancement in bioavailability, Carum carvi (Cc) Extr.: nutraceutical with Carum carvi extract 30 mg/kg; for % Enhancement in bioavailability, Carum carvi + Zingiber officinale, Extr. (Cc): nutraceutical with Carum carvi extract and Zingiber officinale; for % Enhancement in bioavailability, Carum carvi + piperine, Extr. (Cc): nutraceutical with Carum carvi extract and piperine; for % Enhancement in bioavailability, BE from Carum carvi: drug with Carum carvi bioenhancer (aqueous or 50% alcoholic extract 30 mg/kg or Fraction No. 1 15 mg/kg), drug dose mg/kg; for % Enhancement in bioavailability, Carum carvi + Zingiber officinale: drug with Carum carvi bioenhancer and Zingiber officinale 35 mg/kg; for % Enhancement in bioavailability, Carum carvi + Piperine: drug with Carum carvi bioenhancer and piperine 8 mg/kg

% Enhancement in bioavailability, BE from Carum carvi [1] [%] | % Enhancement in bioavailability, Carum carvi + Piperine [1] [%] | % Enhancement in bioavailability, Carum carvi + Zingiber officinale [1] [%] | % Enhancement in bioavailability, BE from Zingiber officinale ([1]; 35 mg/kg) | % Enhancement in bioavailability, BE from Zingiber officinale [2] | % Enhancement in bioavailability, Piperine as BE [2] | % Enhancement in bioavailability, Carum carvi (Cc) Frac 1. [2] | % Enhancement in bioavailability, Carum carvi + Zingiber officinale, Frac 1. (Cc) [2] | % Enhancement in bioavailability, Carum carvi + piperine, Frac 1. (Cc) [2] | % Enhancement in bioavailability, Carum carvi (Cc) Extr. [2] | % Enhancement in bioavailability, Carum carvi + Zingiber officinale, Extr. (Cc) [2] | % Enhancement in bioavailability, Carum carvi + piperine, Extr. (Cc) [2] | % Enhancement in bioavailability, BE from Carum carvi [2] | % Enhancement in bioavailability, Carum carvi + Zingiber officinale [2] | % Enhancement in bioavailability, Carum carvi + Piperine [2] | Compound
76 | 70 | 75 | nil |  |  |  |  |  |  |  |  |  |  |  | COc1ccc2[nH]c([S+]([O-])Cc3ncc(C)c(OC)c3C)nc2c1 (stereo not shown) [Omeprazole]
 |  |  |  | Nil | Nil | Nil | Nil | Nil | Nil | Nil | Nil |  |  |  | Vit E
 |  |  |  | 23% | 11% | 28% | 37% | 30% | 20% | 30% | 25% |  |  |  | CSCC[C@H](N)C(=O)O [Methionine]
 |  |  |  | Nil | nil |  |  |  |  |  |  | 95% | 85% | 90% | O=C(CCCN1CCC(O)(c2ccc(Cl)cc2)CC1)c1ccc(F)cc1 [Haloperidol]
 |  |  |  | 67% | 67% |  |  |  |  |  |  | Nil | 71% | 70% | CN(Cc1cc(Br)cc(Br)c1N)C1CCCCC1 [Bromhexine]
 |  |  |  | 46% | 34% |  |  |  |  |  |  | 56% | 68% | 67% | Nc1ccc(S(=O)(=O)c2ccc(N)cc2)cc1 [Dapsone]
 |  |  |  | 80% | 120% |  |  |  |  |  |  | 75% | 100% | 115% | CC1(C)S[C@@H]2[C@H](NC(=O)[C@H](N)c3ccc(O)cc3)C(=O)N2[C@H]1C(=O)O [Amoxycillin]
 |  |  |  | 31% | 17% | 42% | 55% | 26% | 37% | 43% | 21% |  |  |  | Cc1ncc(C[n+]2csc(CCO)c2C)c(N)n1 [Vit B 1]
 |  |  |  | Nil | Nil |  |  |  |  |  |  | 72% | 75% | 78% | CO/N=C(\C(=O)N[C@@H]1C(=O)N2C(C(=O)O)=C(CSc3nc(=O)c(O)nn3C)CS[C@H]12)c1csc(N)n1 [Cefetrioxone]
 |  |  |  | Nil | Nil | nil | Nil | Nil | Nil | Nil | Nil |  |  |  | Vit B 12
 |  |  |  | Nil | nil |  |  |  |  |  |  | Nil | nil | nil | COc1c(C)c2c(c(O)c1C/C=C(\C)CCC(=O)OCCN1CCOCC1)C(=O)OC2 [Mycophenolate Mofeit]
 |  |  |  | 72% | 68% |  |  |  |  |  |  | Nil | 69% | 70% | COc1cccc2c1C(=O)c1c(O)c3c(c(O)c1C2=O)C[C@@](O)(C(=O)CO)C[C@@H]3O[C@H]1C[C@H](N)[C@H](O)[C@H](C)O1 [Dauxorubicin]

Compound | % Enhancement in bioavailability, BE from Carum carvi [1] [%] | % Enhancement in bioavailability, Carum carvi + Piperine [1] [%] | % Enhancement in bioavailability, Carum carvi + Zingiber officinale [1] [%] | % Enhancement in bioavailability, BE from Zingiber officinale ([1]; 35 mg/kg) | % Enhancement in bioavailability, BE from Zingiber officinale [2] | % Enhancement in bioavailability, Piperine as BE [2] | % Enhancement in bioavailability, Carum carvi (Cc) Frac 1. [2] | % Enhancement in bioavailability, Carum carvi + Zingiber officinale, Frac 1. (Cc) [2] | % Enhancement in bioavailability, Carum carvi + piperine, Frac 1. (Cc) [2] | % Enhancement in bioavailability, Carum carvi (Cc) Extr. [2] | % Enhancement in bioavailability, Carum carvi + Zingiber officinale, Extr. (Cc) [2] | % Enhancement in bioavailability, Carum carvi + piperine, Extr. (Cc) [2] | % Enhancement in bioavailability, BE from Carum carvi [2] | % Enhancement in bioavailability, Carum carvi + Zingiber officinale [2] | % Enhancement in bioavailability, Carum carvi + Piperine [2]
[Ca+2] [Calcium] |  |  |  |  | nil | nil | Nil | Nil | Nil | nil | Nil | nil |  |  | 
